target: human recombinant DGK ξ (Homo sapiens (Human), UniProt Q13574); assay: Evaluation of DGK ξ inhibitory effect (ADP-Glo Kinase Assay); format: biochemical
Description: Test Example 1: Evaluation of DGK ξ Inhibitory Effect
The inhibitory effect of a test compound on human recombinant DGK ξ (Carna Biosciences, Inc., 12-410-20N) was examined by the following method in which detection is performed with ADP-Glo™ Kinase Assay (Promega Corporation).
To a 384-well plate (Greiner Bio-One Co., Ltd.), 3 μL of a […] dissolved in an assay buffer (40 mM Tris-HCl pH 7.5, 10 mM MgCl2, 1 mM dithiothreitol (DTT) and 0.1 mg/mL bovine serum albumin (BSA)) (90 ng/mL) was added, and 3 μL of the test compound diluted with the same assay buffer was added so that an intended final concentration was obtained. The mixture was left standing at room temperature for 15 minutes, 3 μL of a substrate (150 μM 1-oleoyl-2-acetyl-sn-glycerol (Sigma-Aldrich Co. LLC.), 480 μM phosphatidylserine (Avanti Polar Lipids, Inc.) and 150 μM UltraPure-ATP (attached to ADP-Glo)) was then added, and the mixture was left standing at room temperature for 30 minutes to react. Thereafter, 3 μL of an ADP-Glo Reagent was added, and the mixture was left standing at room temperature for 40 minutes to stop the enzyme reaction. Further, 6 μL of a Kinase-Detection Reagent was added, the mixture was left standing at room temperature for 30 minutes, and the luminescence was then measured using ARVO X3 (PerkinElmer, Inc.). The half maximal inhibitory concentration (IC50) was calculated by Sigmoid-Emax model non-linear regression analysis, where the signal value in solvent treatment was set to 0% inhibition and the signal value without addition of the DGK ξ enzyme was set to 100% inhibition. […] In the table, Ex represents the number of each Example described below. Also, in the table, compound C (cpd. C) represents the test compound of the Example 199 described in the international publication WO 2008/054702.

human recombinant DGK ξ, sequence (Q13574 whole entry): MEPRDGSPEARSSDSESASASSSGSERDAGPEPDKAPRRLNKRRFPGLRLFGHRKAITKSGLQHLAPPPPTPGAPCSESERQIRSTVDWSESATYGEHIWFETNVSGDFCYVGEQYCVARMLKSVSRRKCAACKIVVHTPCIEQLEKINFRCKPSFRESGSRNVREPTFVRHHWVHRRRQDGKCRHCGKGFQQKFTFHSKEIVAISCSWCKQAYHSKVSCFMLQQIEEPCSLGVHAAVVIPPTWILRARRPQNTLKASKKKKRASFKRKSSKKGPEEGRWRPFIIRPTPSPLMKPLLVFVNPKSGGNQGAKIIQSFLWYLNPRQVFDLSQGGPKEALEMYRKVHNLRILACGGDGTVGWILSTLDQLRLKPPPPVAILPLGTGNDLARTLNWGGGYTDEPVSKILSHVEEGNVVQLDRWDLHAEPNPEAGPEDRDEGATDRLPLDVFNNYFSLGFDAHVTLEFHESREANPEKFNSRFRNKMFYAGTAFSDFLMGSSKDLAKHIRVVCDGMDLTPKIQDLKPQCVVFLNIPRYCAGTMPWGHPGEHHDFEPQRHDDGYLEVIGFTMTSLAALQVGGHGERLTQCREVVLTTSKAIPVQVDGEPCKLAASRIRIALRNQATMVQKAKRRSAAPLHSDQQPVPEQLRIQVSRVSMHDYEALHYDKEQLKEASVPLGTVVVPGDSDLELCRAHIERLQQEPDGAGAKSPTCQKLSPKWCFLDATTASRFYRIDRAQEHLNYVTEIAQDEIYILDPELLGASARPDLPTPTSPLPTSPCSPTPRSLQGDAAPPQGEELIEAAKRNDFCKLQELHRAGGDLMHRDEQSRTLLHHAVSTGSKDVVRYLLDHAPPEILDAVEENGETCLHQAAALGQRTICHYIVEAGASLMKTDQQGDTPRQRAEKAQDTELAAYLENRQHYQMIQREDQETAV

| Compound | IC50 |
| --- | --- |
| O=C(Nc1ccc(Oc2ccccc2F)c(C(F)(F)F)c1N1CCC[C@@H]1CNC1COC1)c1csc(-c2ccnnc2)n1 [Example 63, N-[4-(2-fluorophenoxy)-2-[(2R)-2-{[(oxetan-3-yl)amino]methyl}pyrrolidin-1-yl]-3-(trifluoromethyl)phenyl]-2-(pyridazin-4-yl)-1,3-thiazole-4-carboxamide] | 0.429 µM |
| CNC[C@H]1CN(c2c(NC(=O)c3csc(-c4ccnnc4)n3)ccc(Oc3ccccc3)c2C)CCN1C [Example 65] | 0.012 µM |
| NC[C@@H]1CCCN(c2c(NC(=O)c3csc(-c4ccnnc4)n3)ccc(S(=O)(=O)c3ccccc3)c2C(F)(F)F)C1 [Example 66] | 0.032 µM |
| NC[C@@H]1CCCN(c2c(NC(=O)c3csc(-c4ccnnc4)n3)ccc(Oc3ccccc3)c2C2CC2)C1 [Example 67] | 0.012 µM |
| COc1c(Oc2ccccc2)ccc(NC(=O)c2csc(-c3ccnnc3)n2)c1N1CCC[C@@H](CN)C1 [Example 68] | 0.005 µM |
| NC[C@@H]1CCCN(c2c(NC(=O)c3csc(-c4ccnnc4)n3)ccc(C(=O)c3ccccc3)c2C(F)(F)F)C1 [Example 70] | 0.007 µM |
| Cc1c(OC2CC2)ccc(NC(=O)c2csc(-c3ccnnc3)n2)c1N1CCC[C@@H](CN)C1 [Example 71] | 0.044 µM |
| Cc1c(Oc2ccccc2)ccc(NC(=O)c2csc(-c3ccnnc3)n2)c1N1CCC[C@@H](CN)C1 [Example 72] | 0.018 µM |
| N[C@@H]1CCN2CCN(c3c(NC(=O)c4csc(-c5ccnnc5)n4)ccc(OC4CC4)c3C(F)(F)F)C[C@@H]12 [Example 76] | 0.006 µM |
| CN[C@@H]1CCN2CCN(c3c(NC(=O)c4csc(-c5ccnnc5)n4)ccc(OC4CC4)c3C(F)(F)F)C[C@@H]12 [Example 77] | 0.002 µM |
| CNC[C@@H]1CCCN(c2c(NC(=O)c3csc(-c4ccnnc4)n3)ccc(Oc3ccccc3F)c2C(F)(F)F)C1 [Example 83, N-[4-(2-fluorophenoxy)-2-{(3S)-3-[(methylamino)methyl]piperidin-1-yl}-3-(trifluoromethyl)phenyl]-2-(pyridazin-4-yl)-1,3-thiazole-4-carboxamide mono[(2E)-but-2-enedioate]] | 0.005 µM |
| NC[C@@H]1CCCN(c2c(NC(=O)c3csc(-c4ccnnc4)n3)ccc(Oc3cccc(F)c3)c2C(F)(F)F)C1 [Example 85] | 0.015 µM |
| NC[C@@H]1CCCN(c2c(NC(=O)c3csc(-c4ccnnc4)n3)ccc(Oc3ccccc3F)c2C(F)(F)F)C1 [Example 86] | 0.003 µM |
| CNC1(C(N)=O)CCN(c2ccccc2NC(=O)c2csc(-c3ccnnc3)n2)CC1 [cpd. C, reference compound] | > 2 µM |

Now from value to compound:

| IC50 | Compound |
| --- | --- |
| 0.01 µM | O=C(Nc1ccc(Oc2ccccc2)c(C(F)(F)F)c1N1CCOC2(CCN(C3COC3)CC2)C1)c1csc(-c2ccnnc2)n1 [Example 62, N-{2-[9-(oxetan-3-yl)-1-oxa-4,9-diazaspiro[5.5]undecan-4-yl]-4-phenoxy-3-(trifluoromethyl)phenyl}-2-(pyridazin-4-yl)-1,3-thiazole-4-carboxamide] |
| 0.03 µM | CNCC1CCCN(c2c(NC(=O)c3csc(-c4ccnnc4)n3)ccc(Oc3ccccc3)c2C(F)(F)F)C1 (stereo not drawn) [Example 64, N-[2-{3-[(methylamino)methyl]piperidin-1-yl}-4-phenoxy-3-(trifluoromethyl)phenyl]-2-(pyridazin-4-yl)-1,3-thiazole-4-carboxamide] |
| 0.0007 µM | CN[C@@H]1CCN2CCN(c3c(NC(=O)c4csc(-c5ccnnc5)n4)ccc(Oc4ccccc4)c3C(F)(F)F)C[C@@H]12 [Example 73] |
| 0.041 µM | N[C@H]1CCN2CCN(c3c(NC(=O)c4csc(-c5ccnnc5)n4)ccc(Oc4ccccc4)c3C(F)(F)F)C[C@@H]12 [Example 74] |
| 0.006 µM | N[C@H]1CCN2CCN(c3c(NC(=O)c4csc(-c5ccnnc5)n4)ccc(Oc4ccccc4)c3C(F)(F)F)C[C@H]12 [Example 75] |
| 0.047 µM | N[C@@H]1CCN2CCN(c3c(NC(=O)c4csc(-c5ccnnc5)n4)ccc(Oc4ccccc4)c3C(F)(F)F)C[C@H]12 [Example 79] |
| 0.152 µM | CN(C)[C@H]1CCN2CCN(c3c(NC(=O)c4csc(-c5ccnnc5)n4)ccc(Oc4ccccc4)c3C(F)(F)F)C[C@H]12 [Example 81] |
| 0.003 µM | CN(C)[C@@H]1CCN2CCN(c3c(NC(=O)c4csc(-c5ccnnc5)n4)ccc(OC4CC4)c3C(F)(F)F)C[C@@H]12 [Example 82] |
| 0.006 µM | NC[C@@H]1CCCN(c2c(NC(=O)c3csc(-c4ccnnc4)n3)ccc(Oc3ccccc3)c2C(F)(F)F)C1 [Example 84, N-{2-[(3S)-3-(aminomethyl)piperidin-1-yl]-4-phenoxy-3-(trifluoromethyl)phenyl}-2-(pyridazin-4-yl)-1,3-thiazole-4-carboxamide mono[(2E)-but-2-enedioate]] |
| 0.02 µM | NC[C@H]1CCCN1c1c(NC(=O)c2csc(-c3ccnnc3)n2)ccc(Oc2ccccc2)c1C(F)(F)F [Example 87] |

Source: patent US12227517B2, “Pyridazinyl-thiazolecarboxamide compound” (Astellas Pharma Inc., priority 2019, dated 2025)
